Assay results from patent publication US8252822B2, “Heterocyclic compounds and uses as anticancer agents” (Acea Biosciences, Inc., priority 2007, dated 2012).
Where two headings read alike, the source gives them in different places.

Experiments:
[1] = tested on: Jurkat; assay: RT-CES cell proliferation inhibition, Jurkat; type: cell-based; conditions: Homo sapiens, 24 hrs
Text: (§1) The biological activity of compounds disclosed herein was monitored and profiled using the Real-Time Cell Electronic Sensing (RT-CES®) system from ACEA Biosciences, Inc. The RT-CES system utilizes cell-substrate impedance technology to monitor cellular behavior inside tissue culture wells in a microtiter plate format. The technology features in the integration of molecular and cell biology with microelectronics and is based on the electronic detection of biological assay process. The details of this cell electronic sensing technology and associated devices, systems and methods of use as described in U.S. provisional application No. 60/379,749, filed on Jul. […]
(§2) For measurement of cell-substrate or cell-electrode impedance using RT-CES technology, microelectrodes having appropriate geometries are fabricated onto the bottom surfaces of microtiter plate or similar device, facing into the wells. […] When there are changes to the biological status of the cells analogue electronic readout signals are measured automatically and in real time, and are converted to digital signals for processing and for analysis. In a RT-CES system, a cell index (arbitrary representation of change in impedance) is automatically derived and provided based on measured electrode impedance values. […]
(§3) To quantify cell status based on the measured cell-electrode impedance, a parameter termed Cell Index is derived. […]

[2] = tested on: Bcap37; assay: RT-CES cell proliferation inhibition, Bcap37; type: cell-based; conditions: Homo sapiens
Text: as §1, §2, §3

[3] = tested on: a number of cancer cell lines (MCF7adr, PC3, KB, KB200, Bcap37); assay: RT-CES time-dependent cell index, a number of cancer cell lines (FIG. 10, 11); type: cell-based, human; conditions: various concentrations
Text: as §1, §2, §3

[4] = tested on: KB200; assay: RT-CES cell proliferation inhibition, KB200; type: cell-based; conditions: Homo sapiens
Text: as §1, §2, §3

[5] = tested on: A549 cells; assay: RT-CES cell proliferation inhibition, A549; type: cell-based, Human; conditions: for IC50: Homo sapiens
Text: The biological activity of compounds disclosed herein was monitored and profiled using the Real-Time Cell Electronic Sensing (RT-CES®) system from ACEA Biosciences, Inc. The RT-CES system utilizes cell-substrate impedance technology to monitor cellular behavior inside tissue culture wells in a microtiter plate format. The technology features in the integration of molecular and cell biology with microelectronics and is based on the electronic detection of biological assay process. The details of this cell electronic sensing technology and associated devices, systems and methods of use as described in U.S. provisional application No. 60/379,749, filed on Jul. 20, 2002; U.S. provisional application No. 60/435,400, filed on Dec. 20, 2002; U.S. Provisional application 60/469,572, filed on May 9, 2003, PCT application number PCT/US03/22557, filed on Jul. 18, 2003; PCT application number PCT/US03/22537, filed on Jul. 18, 2003; U.S. patent application Ser. No. 10/705,447, filed on Nov. 10, 2003; U.S. patent application Ser. No. 10/705,615, filed on Nov. 10, 2003, each of which is incorporated by reference. Additional details of RT-CES technology is further disclosed in U.S. provisional application No. 60/519,567, filed on Nov. 12, 2003, and U.S. provisional application No. 60/542,927, filed on Feb. 9, 2004.
For measurement of cell-substrate or cell-electrode impedance using RT-CES technology, microelectrodes having appropriate geometries are fabricated onto the bottom surfaces of microtiter plate or similar device, facing into the wells. Cells are introduced into the wells of the devices, and make contact to and attach to the electrode surfaces. The presence, absence or change of properties of cells affects the electronic and ionic passage on the electrode sensor surfaces. Measuring the impedance between or among electrodes provides important information about biological status of cells present on the sensors. When there are changes to the biological status of the cells analogue electronic readout signals are measured automatically and in real time, and are converted to digital signals for processing and for analysis. In a RT-CES system, a cell index (arbitrary representation of change in impedance) is automatically derived and provided based on measured electrode impedance values. The cell index obtained for a given well reflects: 1) how many cells are attached to the electrode surfaces in this well; 2) how well cells are attached to the electrode surfaces in this well. Thus, the more the cells of same type in similar physiological conditions attach the electrode surfaces, the larger the cell index. And, the better the cells attach to the electrode surfaces (e.g., the cells spread-out more to have larger contact areas, or the cells attach tighter to electrode surfaces), the larger the cell index.
The RT-CES system comprises three components, an electronic sensor analyzer, a device station and 16× or 96× microtiter devices. Microelectrode sensor array was fabricated on glass slides with lithographical microfabrication methods and the electrode-containing slides are assembled to plastic trays to form electrode-containing wells. The device station receives the 16× or 96× microtiter plate devices and is capable of electronically switching any one of the wells to the sensor analyzer for impedance measurement. In operation, the devices with cells cultured in the wells are placed into a device station that is located inside an incubator. Electrical cables connect the device station to the sensor analyzer. Under the RT-CES software control, the sensor analyzer can automatically select wells to be measured and continuously conduct impedance measurements. The impedance data from the analyzer is transferred to a computer, analyzed and processed by the integrated software.
as §3

[6] = tested on: SKOV3; assay: RT-CES cell proliferation inhibition, SKOV3; type: cell-based; conditions: Homo sapiens, SK-OV-3
Text: as §1, §2, §3

[7] = tested on: GTL16; assay: RT-CES cell proliferation inhibition, GTL16; type: cell-based; conditions: Homo sapiens, GTL 16
Text: as §1, §2, §3

[8] = tested on: B16-luc; assay: RT-CES cell proliferation inhibition, B16-luc; type: cell-based, Rat; conditions: Mus musculus
Text: as §1, §2, §3

[9] = tested on: MKN45; assay: RT-CES cell proliferation inhibition, MKN45; type: cell-based; conditions: Homo sapiens, MKN-45
Text: as §1, §2, §3

IC50 [1]: 45.4 nM
IC50 ([5]; A549, 48 hrs, read-out: IC50 (48 hr)): 29.1 nM
IC50 ([6]; SKOV3, 24 hrs, read-out: IC50 (24 hr)): 19.8 nM
IC50 ([6]; SKOV3, 48 hrs, read-out: IC50 (48 hr)): 11.5 nM
IC50 ([8]; 24 hrs, read-out: IC50 (24 hr)): 705 nM
IC50 ([8]; 48 hrs, read-out: IC50 (48 hr)): 643 nM
IC50 ([9]; MKN45, 24 hrs, read-out: IC50 (24 hr)): > 200 nM
IC50 ([9]; MKN45, 48 hrs, read-out: IC50 (48 hr)): > 200 nM
SMILES: Br.CCOc1ccc(Nc2nc(-c3c(C)nc4sccn34)cs2)cc1 [Compound 27, 2-(4-ethoxyphenyl)amino-4-(6-methylimidazo[2,1-b]thiazol-5-yl)thiazole]
IC50 ([2]; Bcap37, 24 hrs, read-out: IC50 (24 hr)): 27.3 nM
IC50 ([2]; Bcap37, 48 hrs, read-out: IC50 (48 hr)): 26 nM
inhibitory effect on the proliferation of a number of cancer cell lines [3]: exhibited inhibitory effect on the proliferation of a number of cancer cell lines
IC50 ([4]; KB200, 24 hrs, read-out: IC50 (24 hr)): 12.1 nM
IC50 ([4]; KB200, 48 hrs, read-out: IC50 (48 hr)): 4.28 nM
concentration at or above which cell indices first decreased with time and then increased ([5]; A549, complex kinetic responses): ≥ 62.5 nM
IC50 ([5]; A549, 24 hours after compound treatment, normalized Cell Index, read-out: IC50 (24 hr)): 57.4 nM
inhibitory ability against the proliferation of A549 cells ([5]; various concentrations studied, time-dependent cell index): exhibited inhibitory ability against the proliferation of A549 cells
IC50 ([7]; GTL16, 24 hrs, read-out: IC50 (24 hr)): 138 nM
IC50 ([7]; GTL16, 48 hrs, read-out: IC50 (48 hr)): 2.1 nM
